In patent publication EP1673354B1, “ARYLINDENOPYRIDINES AND ARYLINDENOPYRIMIDINES AND THEIR USE AS ADENOSINE A2A RECEPTOR ANTAGONISTS” (Ortho-McNeil Pharmaceutical, Inc., priority 2003, dated 2005):

Columns and labels:
Adenosine A1 receptor = molecular target: T1, Adenosine A1 receptor (Homo sapiens, UniProt P30542); experiment: A1 antagonist function (no method described); type: cell-based
T1 sequence (P30542 1-326): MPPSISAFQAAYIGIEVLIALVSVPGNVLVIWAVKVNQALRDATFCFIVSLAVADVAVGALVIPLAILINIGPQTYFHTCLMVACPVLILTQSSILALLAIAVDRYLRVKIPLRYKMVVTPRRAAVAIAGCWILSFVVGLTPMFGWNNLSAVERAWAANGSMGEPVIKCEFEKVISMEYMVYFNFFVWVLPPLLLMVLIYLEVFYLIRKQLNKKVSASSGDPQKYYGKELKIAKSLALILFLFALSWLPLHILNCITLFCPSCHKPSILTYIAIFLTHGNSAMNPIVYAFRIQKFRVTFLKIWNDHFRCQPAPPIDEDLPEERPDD

[1] = molecular target: T2, human adenosine A2a receptors (Homo sapiens, UniProt P29274); experiment: Adenosine A2a receptor functional assay, antagonist mode (cAMP-inducible beta-galactosidase reporter, 50 nM NECA); type: cell-based; settings: CHO-K1 cells, read-out: Ki (nM) A2a antagonist function
T2 construct: expressed in transfected cells; host or cells: CHO-K1 cells with cAMP-inducible beta-galactosidase reporter gene
T2 sequence (P29274 whole entry): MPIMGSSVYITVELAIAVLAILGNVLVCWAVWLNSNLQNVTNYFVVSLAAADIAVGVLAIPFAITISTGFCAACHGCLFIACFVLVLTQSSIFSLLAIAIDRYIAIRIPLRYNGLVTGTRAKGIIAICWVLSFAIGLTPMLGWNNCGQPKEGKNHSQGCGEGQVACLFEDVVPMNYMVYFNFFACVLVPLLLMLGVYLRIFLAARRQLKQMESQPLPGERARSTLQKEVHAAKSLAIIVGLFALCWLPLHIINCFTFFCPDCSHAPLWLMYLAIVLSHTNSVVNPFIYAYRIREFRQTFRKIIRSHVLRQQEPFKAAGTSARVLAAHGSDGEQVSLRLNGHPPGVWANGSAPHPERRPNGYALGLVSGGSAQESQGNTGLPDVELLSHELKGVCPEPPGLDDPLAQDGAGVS
Protocol: Adenosine A2a Receptor Functional Assay
CHO-K1 cells overexpressing human adenosine A2a receptors and containing cAMP-inducible beta-galactosidase reporter gene were seeded at 40-50K/well into 96-well tissue culture plates and cultured for two days. On assay day, cells were washed once with 200 µL assay medium (F-12 nutrient mixture/0.1 % BSA). For agonist assay, adenosine A2a receptor agonist NECA was subsequently added and cell incubated at 37°C, 5% CO2 for 5 hrs before stopping reaction. In the case of antagonist assay, cells were incubated with antagonists for 5 minutes at R.T. followed by addition of 50 nM NECA. Cells were then incubated at 37°C, 5% CO2 for 5 hrs before stopping experiments by washing cells with PBS twice. 50 µL 1X lysis buffer (Promega, 5X stock solution, needs to be diluted to 1X before use) was added to each well and plates frozen at -20°C. For β-galactosidase enzyme colorimetric assay, plates were thawed out at room temperature and 50 µL 2X assay buffer (Promega) added to each well. Color was allowed to develop at 37°C for 1 h or until reasonable signal appeared. Reaction was then stopped with 150 µL 1 M sodium carbonate. […] Data was analyzed in Microsoft Excel and GraphPad Prism programs.

[2] = molecular target: T3, human A2a adenosine receptor (Homo sapiens, UniProt P29274); experiment: Ligand binding assay for adenosine A2a receptor ([3H]CGS21680, HEK293 plasma membrane); settings: radioligand [3H]CGS21680, HEK293 membranes, room temperature 2 hours; read-out: Ki (nM) A2a binding
T3 construct: purchased PerkinElmer RB-HA2a; host or cells: HEK293 cell plasma membrane
T3 sequence (P29274 whole entry): as above
Protocol: Ligand Binding Assay for Adenosine A2a Receptor
Ligand binding assay of adenosine A2a receptor was performed using plasma membrane of HEK293 cells containing human A2a adenosine receptor (PerkinElmer, RB-HA2a) and radioligand [^3H]CGS21680 (PerkinElmer, NET1021). Assay was set up in 96-well polypropylene plate in total volume of 200 µl by sequentially adding 20 µL1:20 diluted membrane, 130 µLassay buffer (50 mM Tris·HCl, pH7.4 10 mM MgCl2, 1 mM EDTA) containing [^3H] […] Nonspecific binding was determined by […] NECA. Reaction was carried out at room temperature for 2 hours before filtering through 96-well GF/C filter plate pre-soaked in 50 mM Tris·HCl, pH7.4 containing 0.3% polyethylenimine. Plates were then washed 5 times with cold 50 mM Tris·HCl, pH7.4, dried and sealed at the bottom. Microscintillation fluid 30 µl was added to each well and the top sealed. Plates were counted on Packard Topcount for [^3H]. Data was analyzed in Microsoft Excel and GraphPad Prism programs.

C57bl/6 mice = experiment: Haloperidol-induced catalepsy study in C57bl/6 mice; type: in vivo; settings: orally dosed at 10 mg/kg; haloperidol 1.5 mg/kg s.c.; test 1 hour after oral dose
Protocol: Haloperidol-induced catalepsy study in C57bl/6 mice
Mature male C57bl/6 mice (9-12 week old from ACE) were housed two per cage in a rodent room. Room temperature was maintained at 64-79 degrees and humidity at 30-70% and room lighting at 12 hrs light/12 hrs dark cycle. On the study day, mice were transferred to the study room. The mice were injected subcutaneously with haloperidol (Sigma H1512, 1.0 mg/ml made in 0.3% tartaric acid, then diluted to 0.2 mg/ml with saline) or vehicle at 1.5 mg/kg, 7.5ml/kg. The mice were then placed in their home cages with access to water and food. 30 minutes later, the mice were orally dosed with vehicle (0.3% Tween 80 in saline) or compounds at 10 mg/kg, 10 ml/kg (compounds, 1mg/ml, made in 0.3% Tween 80 in saline, sonicated to obtain a uniform suspension). The mice were then placed in their home cages with access to water and food. 1 hour after oral dose, the catalepsy test was performed. A vertical metal-wire grid (1.0 cm squares) was used for the test. The mice were placed on the grid and given a few seconds to settle down and their immobility time was recorded until the mice moved their back paw(s). The mice were removed gently from the grid and put back on the grid and their immobility time was counted again. The measurement was repeated three times. The average of three measurements was used for data analysis.

CN(C)CCOC(=O)c1c(N)nc(-c2ccco2)c2c1-c1ccccc1C2=O [Compound 70, 9H-indeno[2,1-c]pyridine-4-carboxylic acid, 3-amino-1-furan-2-yl-9-oxo-, 2-dimethylamino-ethyl ester]
Ki (Adenosine A1 receptor): 20.1 nM
Ki [1]: 0.44 nM
Ki [2]: 9.89 nM
inhibition of haloperidol-induced catalepsy (C57bl/6 mice): 87%

Nc1nc(-c2ccco2)c2c(n1)-c1ccccc1C2=O [Compound 3, 2-amino-4-furan-2-yl-indeno[1,2-d]pyrimidin-5-one]
Ki (Adenosine A1 receptor): 0.288 nM
inhibition of haloperidol-induced catalepsy (C57bl/6 mice): 90%

Nc1nc(-c2ccccc2)c2c(c1C(=O)OCCN1CCCC1)-c1ccccc1C2=O [Compound 88]
Ki (Adenosine A1 receptor): > 300 nM
Ki [1]: 48.9 nM
Ki [2]: 130 nM

Nc1nc(-c2cccc(O)c2)c2c(n1)-c1ccccc1C2=O [Compound 13]
Ki (Adenosine A1 receptor): 10.3 nM
Ki [1]: 35.6 nM
Ki [2]: 5.16 nM

C[C@H](O)[C@@H](O)c1cccc2c1-c1nc(N)nc(-c3ccccc3)c1C2=O [Compound 33]
Ki (Adenosine A1 receptor): 0.021 nM
Ki [1]: 0.34 nM
Ki [2]: 0.175 nM

Nc1nc(-c2cc(F)cc(F)c2)c2c(n1)-c1ccccc1C2=O [Compound 29]
Ki (Adenosine A1 receptor): 4.27 nM
Ki [1]: 1.42 nM
Ki [2]: 20.9 nM

Nc1nc(-c2ccco2)c2c(n1)-c1ccc(Br)cc1C2=O [Compound 16]
Ki (Adenosine A1 receptor): 5.22 nM
Ki [1]: 0.169 nM
Ki [2]: 1.75 nM

N#Cc1c(N)nc(-c2ccsc2)c2c1-c1ccccc1C2=O [Compound 73]
Ki (Adenosine A1 receptor): 9.7 nM
Ki [1]: 0.06 nM
Ki [2]: 4.92 nM

Nc1nc(-c2ccccc2)c2c(n1)-c1cccc(CN3CCCCC3)c1C2=O [Compound 53]
Ki (Adenosine A1 receptor): 40.8 nM
Ki [1]: 14.2 nM
Ki [2]: 64.2 nM

CC(=O)N1CCN(Cc2cccc3c2C(=O)c2c(-c4ccccc4)nc(N)nc2-3)CC1 [Compound 59]
Ki (Adenosine A1 receptor): 34.1 nM
Ki [1]: 7.94 nM
Ki [2]: 40.8 nM

Nc1nc(-c2ccoc2)c2c(n1)-c1ccccc1C2=O [Compound 44]
Ki (Adenosine A1 receptor): 7.4 nM
Ki [1]: 0.208 nM
Ki [2]: 3.93 nM

CN1CCCC1COC(=O)c1c(N)nc(-c2ccco2)c2c1-c1ccccc1C2=O (stereo not drawn) [Compound 82, 9H-indeno[2,1-c]pyridine-4-carboxylic acid, 3-amino-1-furan-2-yl-9-oxo-, 1-methyl-pyrrolidin-2-ylmethyl ester]
Ki (Adenosine A1 receptor): 29.6 nM
Ki [1]: 1.36 nM
Ki [2]: 20.2 nM

Nc1nc(-c2ccsc2)c2c(n1)-c1ccccc1C2=O [Compound 15]
Ki (Adenosine A1 receptor): 3.46 nM
Ki [1]: 0.258 nM
Ki [2]: 3.23 nM

CCN(CC)Cc1cccc2c1C(=O)c1c(-c3ccccc3)nc(N)nc1-2 [Compound 52]
Ki (Adenosine A1 receptor): 107 nM
Ki [1]: 18.3 nM
Ki [2]: 94.4 nM

Nc1nc(-c2ccccc2)c2c(c1C(=O)OCCCN1CCOCC1)-c1ccccc1C2=O [Compound 84]
Ki (Adenosine A1 receptor): 27.4 nM
Ki [1]: 24.7 nM
Ki [2]: 174 nM

CCOC(=O)C1CCCN(Cc2cccc3c2C(=O)c2c(-c4ccccc4)nc(N)nc2-3)C1 (stereo not drawn) [Compound 55]
Ki (Adenosine A1 receptor): 19.9 nM
Ki [1]: 5.84 nM
Ki [2]: 32.8 nM

Nc1nc(-c2ccco2)c2c(n1)-c1cc(Br)ccc1C2=O [Compound 35]
Ki (Adenosine A1 receptor): 7.09 nM
Ki [1]: 0.265 nM
Ki [2]: 3.49 nM

CN(C)C=Nc1nc(-c2cccc(F)c2)c2c(n1)-c1ccccc1C2=O [Compound 19]
Ki (Adenosine A1 receptor): 21.6 nM
Ki [1]: 20.9 nM
Ki [2]: 111 nM

Nc1nc(-c2ccc(F)cc2)c2c(n1)-c1ccccc1C2=O [Compound 38]
Ki (Adenosine A1 receptor): 9.44 nM
Ki [1]: 0.956 nM
Ki [2]: 2.34 nM

CN(C)CCOC(=O)c1c(N)nc(-c2ccsc2)c2c1-c1ccccc1C2=O [Compound 93]
Ki (Adenosine A1 receptor): 104 nM
Ki [1]: 23.6 nM
Ki [2]: 64.1 nM

CCN(CC)CCNc1nc(-c2ccccc2)c2c(n1)-c1ccccc1C2=O [Compound 27]
Ki (Adenosine A1 receptor): > 1000 nM
Ki [1]: 68.3 nM
Ki [2]: 147 nM

N#Cc1c(N)nc(-c2cccc(F)c2)c2c1-c1ccccc1C2=O [Compound 67]
Ki (Adenosine A1 receptor): 4.37 nM
Ki [1]: 0.618 nM
Ki [2]: 13.4 nM

CC(C)Cc1nc(N)c(C#N)c2c1C(=O)c1ccccc1-2 [Compound 86]
Ki (Adenosine A1 receptor): 39.3 nM
Ki [1]: > 1000 nM
Ki [2]: 244 nM

Nc1nc(-c2ccco2)c2c(n1)-c1c(Cl)ccc(Cl)c1C2=O [Compound 26]
Ki (Adenosine A1 receptor): 3.13 nM
Ki [1]: 0.88 nM
Ki [2]: 34.6 nM

CN1CCCC1COC(=O)c1c(N)nc(-c2ccccc2)c2c1-c1ccccc1C2=O (stereo not drawn) [Compound 90]
Ki (Adenosine A1 receptor): > 300 nM
Ki [1]: 57.7 nM
Ki [2]: 202 nM

N#Cc1c(N)nc(-c2ccco2)c2c1-c1ccccc1C2O (stereo not drawn) [Compound 89]
Ki (Adenosine A1 receptor): 11.2 nM
Ki [1]: 1.12 nM
Ki [2]: 5.85 nM

CSc1nc(N)nc2c1C(=O)c1c(N)cccc1-2 [Compound 18]
Ki (Adenosine A1 receptor): 189 nM
Ki [1]: > 3000 nM
Ki [2]: 318 nM

CN(C)CCNC(=O)c1c(N)nc(-c2ccco2)c2c1-c1ccccc1C2=O [Compound 76]
Ki (Adenosine A1 receptor): > 500 nM
Ki [1]: 22.1 nM
Ki [2]: 33 nM

N#Cc1c(N)nc(-c2ccco2)c2c1-c1c(F)c(F)c(F)c(F)c1C2=O [Compound 79]
Ki (Adenosine A1 receptor): > 1000 nM
Ki [1]: 12.5 nM
Ki [2]: 8.03 nM

COc1cccc(-c2nc(N)c(C#N)c3c2C(=O)c2ccccc2-3)c1 [Compound 74]
Ki (Adenosine A1 receptor): 7.28 nM
Ki [1]: 5.7 nM
Ki [2]: 14.7 nM

COc1ccccc1-c1nc(N)nc2c1C(=O)c1ccccc1-2 [Compound 12]
Ki (Adenosine A1 receptor): 172 nM
Ki [1]: 32.5 nM
Ki [2]: 33.5 nM

C=CCCc1nc(N)c(C#N)c2c1C(=O)c1ccccc1-2 [Compound 94]
Ki (Adenosine A1 receptor): 36 nM
Ki [1]: > 1000 nM
Ki [2]: 49.5 nM

CC(CN(C)C)OC(=O)c1c(N)nc(-c2ccco2)c2c1-c1ccccc1C2=O (stereo not drawn) [Compound 96]
Ki (Adenosine A1 receptor): 52.5 nM
Ki [1]: 10.1 nM
Ki [2]: 48.5 nM

COc1ccc(-c2nc(N)nc3c2C(=O)c2ccccc2-3)cn1 [Compound 30]
Ki (Adenosine A1 receptor): 4.05 nM
Ki [1]: 10.2 nM
Ki [2]: 31.5 nM

N#Cc1c(N)nc(C2CCCCC2)c2c1-c1ccccc1C2=O [Compound 95]
Ki (Adenosine A1 receptor): 110 nM
Ki [1]: > 1000 nM
Ki [2]: 338 nM

Nc1nc(-c2ccccc2)c2c(c1C(=O)O)-c1ccccc1C2=O [Compound 65]
Ki (Adenosine A1 receptor): 163 nM
Ki [1]: 245 nM
Ki [2]: 575 nM

Nc1nc(-c2ccco2)c2c(n1)-c1c(F)cccc1C2=O [Compound 36]
Ki (Adenosine A1 receptor): 2.52 nM
Ki [1]: 0.052 nM
Ki [2]: 4.37 nM

CNc1nc(-c2ccccc2)c2c(n1)-c1ccccc1C2=O [Compound 24]
Ki (Adenosine A1 receptor): 5.99 nM
Ki [1]: > 3000 nM
Ki [2]: 30.3 nM
